From ChEMBL document CHEMBL1649454, “Genetic analysis of colistin resistance in Salmonella enterica serovar Typhimurium” (2009)
Calls of active or inactive are those of the source. No cut-off for these calls is given here.

Experiments:
Salmonella typhimurium [1] = assay: Antimicrobial activity against Salmonella enterica serovar Typhimurium LT2 DA10864 harboring pmrB (AGC to AGA, S305R mutant) by Etest method; format: functional, organism-based; conditions: Salmonella enterica subsp. enterica serovar Typhimurium str. LT2
Salmonella typhimurium [2] = assay: Antimicrobial activity against Salmonella enterica serovar Typhimurium LT2 DA10826 harboring pmrA (GGG to GAG, G53E mutant)by Etest method; format: functional, organism-based; conditions: Salmonella enterica subsp. enterica serovar Typhimurium str. LT2
Salmonella typhimurium [3] = assay: Antimicrobial activity against Salmonella enterica serovar Typhimurium LT2 DA10875 harboring pmrB (GGG to AGG, G206R mutant) by Etest method; format: functional, organism-based; conditions: Salmonella enterica subsp. enterica serovar Typhimurium str. LT2
Salmonella typhimurium [4] = assay: Antimicrobial activity against Salmonella enterica serovar Typhimurium LT2 DA10833 harboring pmrB (GAA to AAA, E161K mutant) by Etest method; format: functional, organism-based; conditions: Salmonella enterica subsp. enterica serovar Typhimurium str. LT2
Salmonella typhimurium [5] = assay: Antimicrobial activity against Salmonella enterica serovar Typhimurium LT2 DA10850 harboring pmrA (GGG to AGG, G53R mutant) by Etest method; format: functional, organism-based; conditions: Salmonella enterica subsp. enterica serovar Typhimurium str. LT2
Salmonella typhimurium [6] = assay: Bactericidal activity against Salmonella enterica serovar Typhimurium LT2 DA10845 harboring pmrB M186I mutant at 16 mg/L after 240 mins by time kill study; format: functional, organism-based; conditions: Salmonella enterica subsp. enterica serovar Typhimurium str. LT2
Salmonella typhimurium [7] = assay: Antimicrobial activity against Salmonella enterica serovar Typhimurium LT2 DA10856 harboring pmrB (GTG to ATG, V161M mutant) by Etest method; format: functional, organism-based; conditions: Salmonella enterica subsp. enterica serovar Typhimurium str. LT2
Salmonella typhimurium [8] = assay: Antimicrobial activity against Salmonella enterica serovar Typhimurium LT2 DA10848 harboring pmrB (ACG to CCG, T156P mutant) by Etest method; format: functional, organism-based; conditions: Salmonella enterica subsp. enterica serovar Typhimurium str. LT2
Salmonella typhimurium [9] = assay: Antimicrobial activity against Salmonella enterica serovar Typhimurium LT2 DA10862 harboring pmrB (GAG to GCG, E21A mutant) by Etest method; format: functional, organism-based; conditions: Salmonella enterica subsp. enterica serovar Typhimurium str. LT2
Salmonella typhimurium [10] = assay: Antimicrobial activity against Salmonella enterica serovar Typhimurium LT2 DA10859 harboring pmrB (GTG to GGG, V161G mutant) by Etest method; format: functional, organism-based; conditions: Salmonella enterica subsp. enterica serovar Typhimurium str. LT2
Salmonella typhimurium [11] = assay: Antimicrobial activity against Salmonella enterica serovar Typhimurium LT2 DA10863 harboring pmrB (GGG to TGG, G206W mutant) by Etest method; format: functional, organism-based; conditions: Salmonella enterica subsp. enterica serovar Typhimurium str. LT2
Salmonella typhimurium [12] = assay: Antimicrobial activity against Salmonella enterica serovar Typhimurium LT2 DA10844 harboring pmrA (GGG to AGG, G15R mutant) by Etest method; format: functional, organism-based; conditions: Salmonella enterica subsp. enterica serovar Typhimurium str. LT2
Salmonella typhimurium [13] = assay: Antimicrobial activity against Salmonella enterica serovar Typhimurium LT2 DA10839 harboring pmrB (TCC to CCC, S124P mutant) by Etest method; format: functional, organism-based; conditions: Salmonella enterica subsp. enterica serovar Typhimurium str. LT2
Salmonella typhimurium [14] = assay: Antimicrobial activity against Salmonella enterica serovar Typhimurium LT2 DA10840 harboring pmrA (CGC to CAC, R81H mutant) by Etest method; format: functional, organism-based; conditions: Salmonella enterica subsp. enterica serovar Typhimurium str. LT2
Salmonella typhimurium [15] = assay: Bactericidal activity against Salmonella enterica serovar Typhimurium LT2 DA10840 harboring pmrA R81H mutant at 16 mg/L after 30 mins by time kill study; format: functional, organism-based; conditions: Salmonella enterica subsp. enterica serovar Typhimurium str. LT2
Salmonella typhimurium [16] = assay: Antimicrobial activity against Salmonella enterica serovar Typhimurium LT2 DA10829 harboring pmrB (AGT to AGA, S29R mutant) by Etest method; format: functional, organism-based; conditions: Salmonella enterica subsp. enterica serovar Typhimurium str. LT2
Salmonella typhimurium [17] = assay: Bactericidal activity against Salmonella enterica serovar Typhimurium LT2 DA6192 at 1 mg/L after 30 mins by time kill study; format: functional, organism-based; conditions: Salmonella enterica subsp. enterica serovar Typhimurium str. LT2
Salmonella typhimurium [18] = assay: Antimicrobial activity against Salmonella enterica serovar Typhimurium LT2 DA10874 harboring pmrB ACC to CCC, T147P mutant) by Etest method; format: functional, organism-based; conditions: Salmonella enterica subsp. enterica serovar Typhimurium str. LT2
Salmonella typhimurium [19] = assay: Antimicrobial activity against Salmonella enterica serovar Typhimurium LT2 DA10835 harboring (pmrB GTG to CTG, V161L mutant) by Etest method; format: functional, organism-based; conditions: Salmonella enterica subsp. enterica serovar Typhimurium str. LT2
Salmonella typhimurium [20] = assay: Antimicrobial activity against Salmonella enterica serovar Typhimurium LT2 DA10853 pmrB AAT to TAT and N130Y mutant by Etest method; format: functional, organism-based; conditions: Salmonella enterica subsp. enterica serovar Typhimurium str. LT2
Salmonella typhimurium [21] = assay: Antimicrobial activity against Salmonella enterica serovar Typhimurium LT2 DA6192 by Etest method; format: functional, organism-based; conditions: Salmonella enterica subsp. enterica serovar Typhimurium str. LT2
Salmonella typhimurium [22] = assay: Bactericidal activity against Salmonella enterica serovar Typhimurium LT2 DA10840 harboring pmrA R81H mutant at 16 mg/L after 240 mins by time kill study; format: functional, organism-based; conditions: Salmonella enterica subsp. enterica serovar Typhimurium str. LT2
Salmonella typhimurium [23] = assay: Antimicrobial activity against Salmonella enterica serovar Typhimurium LT2 DA10831 harboring pmrB (AGC to CGC, S305R mutant) by Etest method; format: functional, organism-based; conditions: Salmonella enterica subsp. enterica serovar Typhimurium str. LT2
Salmonella typhimurium [24] = assay: Antimicrobial activity against Salmonella enterica serovar Typhimurium LT2 DA10837 harboring pmrB (CCG to CAG, P94Q mutant) by Etest method; format: functional, organism-based; conditions: Salmonella enterica subsp. enterica serovar Typhimurium str. LT2
Salmonella typhimurium [25] = assay: Antimicrobial activity against Salmonella enterica serovar Typhimurium LT2 DA10845 harboring pmrB (ATG to ATA, M186I mutant) by Etest method; format: functional, organism-based; conditions: Salmonella enterica subsp. enterica serovar Typhimurium str. LT2
Salmonella typhimurium [26] = assay: Bactericidal activity against Salmonella enterica serovar Typhimurium LT2 DA10829 harboring pmrB S29R mutant at 16 mg/L after 240 mins by time kill study; format: functional, organism-based; conditions: Salmonella enterica subsp. enterica serovar Typhimurium str. LT2
Salmonella typhimurium [27] = assay: Bactericidal activity against Salmonella enterica serovar Typhimurium LT2 DA10829 harboring pmrB S29R mutant at 16 mg/L after 30 mins by time kill study; format: functional, organism-based; conditions: Salmonella enterica subsp. enterica serovar Typhimurium str. LT2
Salmonella typhimurium [28] = assay: Antimicrobial activity against Salmonella enterica serovar Typhimurium LT2 DA10832 harboring pmrB (ACC to GCC, T92A mutant) by Etest method; format: functional, organism-based; conditions: Salmonella enterica subsp. enterica serovar Typhimurium str. LT2
Salmonella typhimurium [29] = assay: Bactericidal activity against Salmonella enterica serovar Typhimurium LT2 DA10845 harboring pmrB M186I mutant at 16 mg/L after 30 mins by time kill study; format: functional, organism-based; conditions: Salmonella enterica subsp. enterica serovar Typhimurium str. LT2
Salmonella typhimurium [30] = assay: Antimicrobial activity against Salmonella enterica serovar Typhimurium LT2 DA10857 harboring pmrA (CGC to TGC, R81C mutant) by Etest method; format: functional, organism-based; conditions: Salmonella enterica subsp. enterica serovar Typhimurium str. LT2
Salmonella typhimurium [31] = assay: Antimicrobial activity against Salmonella enterica serovar Typhimurium LT2 DA10845 harboring pmrB (ATG to ATA, M186I mutant) grown in liquid culture; format: functional
Salmonella typhimurium [32] = assay: Antimicrobial activity against Salmonella enterica serovar Typhimurium LT2 DA10840 harboring pmrA (CGC to CAC, R81H mutant) grown in liquid culture; format: functional
Salmonella typhimurium [33] = assay: Antimicrobial activity against Salmonella enterica serovar Typhimurium LT2 DA10826 harboring pmrA (GGG to GAG, G53E mutant) grown in liquid culture; format: functional
Salmonella typhimurium [34] = assay: Antimicrobial activity against Salmonella enterica serovar Typhimurium LT2 DA6192 grown in liquid culture; format: functional
Salmonella typhimurium [35] = assay: Antimicrobial activity against Salmonella enterica serovar Typhimurium LT2 DA10833 harboring pmrB (GAA to AAA, E161K mutant) grown in liquid culture; format: functional
[36] = Salmonella enterica subsp. enterica serovar Typhimurium str. LT2

Compound: COLISTIN
- MIC (Salmonella typhimurium [1]): 2.7 µg/mL
- MIC (Salmonella typhimurium [2]): 3 µg/mL
- MIC (Salmonella typhimurium [3]): 2 µg/mL
- MIC (Salmonella typhimurium [4]): 3 µg/mL
- MIC (Salmonella typhimurium [5]): 3 µg/mL
- Activity (Salmonella typhimurium [6]): Active
- MIC (Salmonella typhimurium [7]): 4 µg/mL
- MIC (Salmonella typhimurium [8]): 4.4 µg/mL
- MIC (Salmonella typhimurium [9]): 4 µg/mL
- MIC (Salmonella typhimurium [10]): 3 µg/mL
- MIC (Salmonella typhimurium [11]): 2 µg/mL
- MIC (Salmonella typhimurium [12]): 2.7 µg/mL
- MIC (Salmonella typhimurium [13]): 2.3 µg/mL
- MIC (Salmonella typhimurium [14]): 3 µg/mL
- Activity (Salmonella typhimurium [15]): Active
- MIC (Salmonella typhimurium [16]): 0.5 µg/mL
- Activity (Salmonella typhimurium [17]): Active
- MIC (Salmonella typhimurium [18]): 2.5 µg/mL
- MIC (Salmonella typhimurium [19]): 2 µg/mL
- MIC (Salmonella typhimurium [20]): 2 µg/mL
- MIC (Salmonella typhimurium [21]): 0.125 µg/mL
- Activity (Salmonella typhimurium [22]): Active
- MIC (Salmonella typhimurium [23]): 2.7 µg/mL
- MIC (Salmonella typhimurium [24]): 2.5 µg/mL
- MIC (Salmonella typhimurium [25]): 2.8 µg/mL
- Activity (Salmonella typhimurium [26]): Active
- Activity (Salmonella typhimurium [27]): Active
- MIC (Salmonella typhimurium [28]): 0.25 µg/mL
- Activity (Salmonella typhimurium [29]): Active
- MIC (Salmonella typhimurium [30]): 4 µg/mL

Compound: CC[C@H](C)[C@H](NC(=O)[C@H](CCCCN)NC(=O)[C@H](CCC(=O)O)NC(=O)[C@H](CCCCN)NC(=O)[C@H](CO)NC(=O)[C@H](CCCCN)NC(=O)[C@H](CCCNC(=N)N)NC(=O)[C@H](Cc1ccccc1)NC(=O)[C@H](Cc1ccccc1)NC(=O)[C@H](CC(=O)O)NC(=O)CNC(=O)[C@H](CC(C)C)NC(=O)[C@@H](N)CC(C)C)C(=O)NCC(=O)N[C@@H](CCCCN)C(=O)N[C@@H](CCC(=O)O)C(=O)N[C@@H](Cc1ccccc1)C(=O)N[C@@H](CCCCN)C(=O)N[C@@H](CCCNC(=N)N)C(=O)N[C@H](C(=O)N[C@H](C(=O)N[C@@H](CCC(N)=O)C(=O)N[C@@H](CCCNC(=N)N)C(=O)N[C@H](C(=O)N[C@@H](CCCCN)C(=O)N[C@@H](CC(=O)O)C(=O)N[C@@H](Cc1ccccc1)C(=O)N[C@@H](CC(C)C)C(=O)N[C@@H](CCCNC(=N)N)C(=O)N[C@@H](CC(N)=O)C(=O)N[C@@H](CC(C)C)C(=O)N[C@H](C(=O)N1CCC[C@H]1C(=O)N[C@@H](CCCNC(=N)N)C(=O)N[C@H](C(=O)N[C@@H](CCC(=O)O)C(=O)N[C@@H](CO)C(=O)O)[C@@H](C)O)C(C)C)[C@@H](C)CC)C(C)C)[C@@H](C)CC [CATHELICIDIN]
- MIC (Salmonella typhimurium [31]): 25 µM
- MIC (Salmonella typhimurium [32]): 25 µM
- MIC (Salmonella typhimurium [33]): 25 µM
- MIC (Salmonella typhimurium [34]): 15 µM
- MIC (Salmonella typhimurium [35]): 25 µM

Compound: BLEOMYCIN
- MIC (Salmonella typhimurium [31]; [36]): 0.19 µg/mL
- MIC (Salmonella typhimurium [32]; [36]): 0.19 µg/mL
- MIC (Salmonella typhimurium [33]; [36]): 0.19 µg/mL
- MIC (Salmonella typhimurium [34]; [36]): 0.19 µg/mL
- MIC (Salmonella typhimurium [35]; [36]): 0.19 µg/mL

Compound: H-RRRPRPPYLPRPRPPPFFPPRLPPRIPPGFPPRFPPRFP-NH2
- MIC (Salmonella typhimurium [31]): 3 µM
- MIC (Salmonella typhimurium [32]): 3 µM
- MIC (Salmonella typhimurium [33]): 3 µM
- MIC (Salmonella typhimurium [34]): 3 µM
- MIC (Salmonella typhimurium [35]): 3 µM
